According to patent US7135307B2, “Gamma three protease” (Merck & Co., Inc., priority 2001, dated 2006):
Where a SMILES comes first, the peptide text is derived from it. [ ]: non-standard residue; d: D form. The star is where a group is joined. Sta = CC(C)C[C@H](N)[C@@H](O)CC(=O)O; Isovaleryl = CC(C)CC(=O)*

Experiments:
Format in all cases: biochemical
[1] = test system: γ-secretase activity associated with presenilin-1/presenilin-2; assay: γ-secretase activity in HeLa S3 cell membranes, C100Flag substrate, ECL detection of Aβ
γ3 protease [2] = assay: γ3 protease activity in HeLa S3 cell membranes, C100Flag substrate, ECL detection of Aβ
Source text: The source of γ3 protease was a membrane preparation from HeLa S3 cells prepared as in Example 9. The production of the γ3 protease substrate and the conditions for cleavage are described in Example 10. The procedure for determining whether the substrate had been cleaved by γ3 protease was as in Example 6.
(§1) Aβ peptides were detected using a sandwich assay employing an antibody to capture the peptide and an antibody to detect the presence of the peptide. Detection was achieved by using electrochemiluminescence (ECL) (Yang et al., 1994, Bio/Technology 12:193–194; Khorkova et al., 1998, J. Neurosci. Meth. 82:159–166) and an Origen 1.5 Analyzer (Igen Inc., Gaithersburg, Md.).
(§2) Capture was performed using the 4G8 murine monoclonal antibody (Senetek PLC, Maryland Heights, Mo.). The 4G8 murine monoclonal antibody binds an epitope in the Aβ peptide (about amino acids 18–21 of SEQ.ID.NO.:3) that is immediately distal to the α-secretase cleavage site. The 4G8 monoclonal antibody was biotinylated with Biotin-LC-Sulfo-NHS-Ester (Igen Inc., Gaithersburg, Md.).
Detection was achieved using the G2-10 murine monoclonal antibody and the FCA3542 rabbit antibody. […]
The G2-10 and FCA3542 antibodies were ruthenylated with TAG-NHS Ester (Igen Inc., Gaithersburg, Md.). Aβ(x-40) was detected with biotinylated 4G8 and ruthenylated G2-10. Aβ(x-42) was detected with biotinylated 4G8 and ruthenylated FCA3542. […]

[3] = test system: γ-secretase activity associated with presenilins 1 and 2; assay: γ-secretase activity in ES-PBD18 membranes (wild-type mouse embryonic stem cells), generation of Aβ1-40 and Aβ1-42; conditions: 1 μM inhibitor, FIG. 2A, 2B
Description: The presence of γ3 protease activity having a pH optimum of about 6 is clearly seen. […] Again, the presence of γ3 protease activity having a pH optimum of about 6 is clearly seen. The source of γ3 protease was ES-PBD18 membranes. ES-PBD18 membranes were prepared from wild-type mouse embryonic stem cells according to the procedure of Example 11.
(§3) Another method for product detection, employing electrochemiluminescence with a capture antibody and an antibody specific for either Aβ1-40 or Aβ1-42, is described in Example 6 below.
as §1
• 1. […]

γ3 protease [4] = assay: Inhibition of γ3 protease production of Aβ peptides by pepstatin A, ECL detection
Source text: as §3, §1, §2
Detection was achieved using the G2-10 murine monoclonal antibody and the FCA3542 rabbit antibody. The G2-10 murine monoclonal antibody (provided by K. Beyreuther, University of Heidelberg, Germany) binds the C-terminus that is exposed after γ3 protease-mediated cleavage to generate amino acid 40 of the Aβ1-40 peptide. (Ida et al., 1996, J. Biol. Chem. 271:22908–22914). The FCA3542 rabbit antibody (provided by F. Checler, IPMC du CNRS, Valbonne, France) binds the C-terminus that is exposed after γ3 protease-mediated cleavage to generate amino acid 42 of the Aβ1-42 peptide. (Barelli et al., 1997, Mol. Med. 3:695–707.)
The G2-10 and FCA3542 antibodies were ruthenylated with TAG-NHS Ester (Igen Inc., Gaithersburg, Md.). Aβ(x-40) was detected with biotinylated 4G8 and ruthenylated G2-10. Aβ(x-42) was detected with biotinylated 4G8 and ruthenylated FCA3542.

Compound: CC(C)C[C@H](NC(=O)[C@H](Cc1ccccc1)C[C@@H](O)[C@H](Cc1ccccc1)NC(=O)OC(C)(C)C)C(=O)N[C@@H](Cc1ccccc1)C(N)=O [L-685,458, {1S-Benzyl-4-R-[1-(1S-carbamoyl-2-phenylethylcarbamoyl)-1S-3-methylbutylcarbamoyl]-2R-hydroxy-5-phenylpentyl}carbamic acid tert-butyl ester]
- inhibition of the activity of the γ secretase complex containing presenilin-1 or presenilin-2 ([1]; general statement): inhibited
- block of γ-secretase activity ([1]; pH 7.0 (pH optimum for presenilin-1/presenilin-2 associated γ-secretase), HeLa S3 membranes, FIG. 1): essentially completely block
- susceptibility of γ3 protease activity to inhibition (γ3 protease [2]; general statement): not susceptible to inhibition
- γ-secretase-type activity remaining in the presence of inhibitor (γ3 protease) (γ3 protease [2]; pH 6.0 (pH optimum for γ3 protease), HeLa S3 membranes, FIG. 1): significant γ-secretase activity remains
- inhibition of γ-secretase activity associated with presenilins 1 and 2 [3]: essentially completely inhibit

Compound: CC(C)CC(=O)N[C@H](C(=O)N[C@H](C(=O)N[C@@H](CC(C)C)[C@@H](O)CC(=O)N[C@@H](C)C(=O)N[C@@H](CC(C)C)[C@@H](O)CC(=O)O)C(C)C)C(C)C [pepstatin A] (Isovaleryl-VV[Sta]A[Sta]-OH)
- inhibition of production of Aβ1-40 by γ3 protease (γ3 protease [4]; FIG. 3A): inhibits
- inhibition of production of Aβ1-42 by γ3 protease (γ3 protease [4]; FIG. 3B): inhibits
- inhibition of γ3 protease activity (γ3 protease [4]; general statement (aspartyl class protease)): inhibited
